Common to all, as to assay: inhibition of tumour cell growth, NCI panel, 48 h
For assay [1], the system named is 786-0 renal.
Assay [2] concerns HCT-116 colon.
In assay [3] the test system is K-562 leukemia.
The test system of assay [4] is SK-OV-3 ovarian.
Assay [5] has as its system TK-10 renal.
Assay [6] deals with NCI-H226 lung.
The subject of assay [7] is SNB-75 CNS.

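Five concentrations, 48 hours, 96-well plates. GI50 = concentration required for 50% inhibition of growth. TGI marks complete inhibition of growth.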

`CNS(=O)(=O)NNS(=O)(=O)c1ccc(Cl)cc1`: the TGI in assay [1], in assay [2], in assay [3], in assay [4] and in assay [5] was greater than 100 µM throughout.
As for `O=C(O)/C(Cl)=C(\Cl)C(=O)Nc1ccc(Cl)c(Cl)c1Cl`, the TGI stood at 32.1 µM in assay [1]; 28.1 µM in assay [2]; 83.1 µM in assay [3]; 35.5 µM in assay [6]; 35.2 µM in assay [4]; 34.8 µM in assay [7]. In addition, the TGI in assay [5] was determined as 30.9 µM.
On to `COC(=O)C(C)(C)N=CN(C)C`, for which the TGI in assay [1], in assay [2], in assay [3], in assay [6], in assay [4] and in assay [7] was greater than 100 µM throughout. The TGI in assay [5] is greater than 100 µM.
Regarding `CC1CN1c1c(C(=O)/C=C/c2ccccc2)c(-c2ccccc2)nn(C)c1=O` (stereo not drawn), the TGI was 30.6 µM in assay [1]; 33.2 µM in assay [2]; 50.4 µM in assay [3]; 45.3 µM in assay [6]; greater than 100 µM in assay [4]; 40 µM in assay [7]. Moreover, in assay [5], the TGI was determined as 61.4 µM.
For `Cc1cc2c(c(C(=O)O)c1C)-c1cccc(F)c1C2=O`, the TGI in assay [1], in assay [3], in assay [6], in assay [4], in assay [7] and in assay [5] was greater than 100 µM in each case.
Consider `CC1(C)C2CCC13CS(=O)(=O)N1O[C@]13C(=O)O2` (stereo partly drawn), for which the TGI in assay [1], in assay [2], in assay [3], in assay [6], in assay [7] and in assay [5] was greater than 100 µM throughout.
As to `CCOC(=O)C(=O)Nc1cc(Cl)ccc1Cl`, the TGI in assay [1], in assay [2], in assay [3], in assay [6], in assay [4] and in assay [7] was greater than 100 µM throughout. Also, the TGI in assay [5] was greater than 100 µM.
Regarding `CN(C)c1ccc(/C=C2\C=Cc3ccccc32)cc1`, the TGI in assay [1] was greater than 100 µM; in assay [2], greater than 100 µM; in assay [3], greater than 100 µM; in assay [4], greater than 100 µM; in assay [7], 57 µM; in assay [5], greater than 100 µM.
Consider `CCCCCCN(N)C(=O)CC#N`, for which the TGI in assay [1], in assay [2], in assay [3], in assay [6], in assay [4] and in assay [7] was greater than 100 µM in each case. The compound also came in with a TGI in assay [5] greater than 100 µM.
Consider `COc1cc2nc(NCCCCCNC(=O)c3ccco3)nc(N)c2cc1OC`, for which the TGI in assay [1] is 49 µM; in assay [3], greater than 100 µM; in assay [6] it was 95.6 µM; in assay [4] it was greater than 100 µM; in assay [7], 54.2 µM; in assay [5], greater than 100 µM.
Regarding `N#Cc1ccc(N=Cc2c([O-])ccc3ccccc23)cc1.[C-]#[O+].[C-]#[O+].[Ir]`, the GI50 in assay [1] was 14.3 µM; in assay [2], 13.2 µM; in assay [3], 8.99 µM; in assay [4], 21.1 µM; in assay [7] it was 11 µM; in assay [5], 4.35 µM. For the same compound, the TGI in assay [1] was determined as 28 µM; in assay [2], 26 µM; in assay [3], 28.9 µM; in assay [4], 39.1 µM; in assay [7], 24.9 µM; in assay [5], 13.5 µM.
On to `CCCCCCCCCCCCCP(=O)(O)NCC(N)=O`, for which the TGI in assay [1], in assay [2], in assay [6], in assay [4], in assay [7] and in assay [5] was greater than 100 µM each time.
For `CN(C)CCC(/C=C/c1ccccc1)=N\Nc1ccc(Cl)cc1Cl`, the TGI was 26.1 µM in assay [1]; 28.8 µM in assay [2]; 28.7 µM in assay [3]; 22.8 µM in assay [4]; 18.8 µM in assay [7]; 27.2 µM in assay [5].
For `C/C=C(\C)c1cc(O)c(C)c2c1Oc1cc(O)c(Cl)c(C)c1C(=O)O2`, the TGI was found to be 49.2 µM in assay [1], 33.6 µM in assay [6], 53.3 µM in assay [7] and 30.4 µM in assay [5].
In the case of `CCOC1=C2N=C(Cc3ccccc3F)N=C2C(=O)c2ccccc21`, the TGI in assay [1], in assay [2], in assay [3], in assay [6] and in assay [7] was greater than 100 µM in each case.
For the compound `CCO/C=C1\N=C(c2ccccc2Br)OC1=O`, the TGI in assay [1], in assay [3], in assay [6], in assay [4], in assay [7] and in assay [5] was greater than 100 µM in each case.

Values taken from PubChem BioAssay (NCI).
